Assay: Human HepG2 cell viability assay in 384 well format
Type: toxicity, cell-based
Design: dose 125 nL, time 70.5 hour; concentration not given beside the values
Details: HepG2 cells, read-out: Inhibition

| Compound | cytotoxicity at 70.5 h [%] |
| --- | --- |
| O=C(CCCn1cncn1)NC1(c2ccccc2)CCC1 | -4.44 |
| COCCN1C(=O)C[C@H]2[C@H]1CCN2C(=O)c1ccc[nH]1 | -10.2 |
| CC(C)N(Cc1ccccc1)C(=O)c1cc(C2CCCN2C)ccn1 (centres undefined) | -6.6 |
| CC(=O)N1CCOC(c2cc(N3CC(O)C3)nc(C)n2)C1 (centres undefined) | -16.5 |
| CN(C)c1ccc(CN2CCC(C(O)Cc3ccccc3)CC2)cn1 (centres undefined) | -3.93 |
| Cc1ccc(-c2nc(CC3CCN(C)CC3)no2)cc1N1CCNC1=O | -7.33 |
| CCCc1nc(C)c(C(=O)NCc2ccc(C)n2C)s1 | 17.6 |
| CC(=O)NCCC1CCCCN1S(=O)(=O)c1cccc(F)c1 (centres undefined) | 19.6 |
| O=C(Nc1ccccc1)C1CN(CC2CCOCC2)CC12CCOCC2 (centres undefined) | 9.8 |
| CCc1nnc(SC2CCCN(c3cccc(F)c3)C2=O)n1C (centres undefined) | -8.7 |
| CS(=O)(=O)Nc1ccn(Cc2ccc(F)cc2Cl)n1 | -12.3 |
| Cn1cc(N2CC3(CCN(S(C)(=O)=O)C3)CC2=O)cn1 (centres undefined) | 2.06 |
| Cn1cc(C(=O)N2CCCC2c2ccc3c(c2)OCO3)ccc1=O (centres undefined) | -1.44 |
| CCn1nccc1CNC(=O)C(C)n1cc2c(n1)c(C)nn2C (centres undefined) | 3.69 |
| Cc1cc(-c2nccs2)nc(C2CCN(Cc3ccncc3)CC2)n1 | -0.926 |
| Cc1cc(C)n(-c2cncc(NCCNC(=O)C(C)C)n2)n1 | -3.05 |
| O=S(=O)(C1CC1)N1CCC2(CN(c3ccccn3)C2)C1 | -7.95 |
| O=C(CN1CCOCC1)Nc1cc(C(F)(F)F)ccc1-n1cccc1 | -3.59 |
| Cc1ccc(-c2cc(CN3CCOC(Cn4cncn4)C3)on2)cc1 (centres undefined) | 47.8 |
| COc1cccc(N2CCN(CCC(=O)NC3CCCCC3)CC2)c1 | 16.7 |
| O=C(Cn1c(-c2ccco2)cc2cccnc21)N1CCCC1 | -8.97 |
| COc1ccccc1N1CCN(CC(=O)NC(C)c2ccco2)CC1 (centres undefined) | -5.63 |
| CCOC(=O)N1CCN(c2nc(NC)c3ccccc3n2)CC1 | -15.5 |

| Compound | cytotoxicity at 70.5 h [%] |
| --- | --- |
| CC(C)(C)c1nnc(CN2CCN(CC(O)c3ccccc3)CC2)o1 (centres undefined) | -11.1 |
| O=C(CCn1cc(Cl)cn1)Nc1ccc2c(c1)OCCO2 | -8.19 |
| O=C(NCCc1cc(F)ccc1F)NC(CO)c1ccccc1 (centres undefined) | 19.3 |
| O=C(NCc1ccc2[nH]c(=O)[nH]c2c1)c1ccc(CN2CCCC2)o1 | -9.98 |
| CC(C)c1nnc2n1CCN(Cc1nc3c(F)cccc3[nH]1)C2 | -5.06 |
| CCc1ccc(CN2C[C@@H]3OCCN(c4ccnc(N(C)C)n4)[C@@H]3C2)o1 | 5.59 |
| CCOC(=O)c1sc(NC(=O)CN2C(=O)CCC2=O)c(C#N)c1C | 31.1 |
| Cc1nonc1CNC(=O)C(C)Oc1cccc(F)c1 (centres undefined) | -8.47 |
| O=C(NCc1cccnc1)[C@@H]1C[C@H]2[C@H](CCN2c2ncccn2)O1 | -3 |
| COC1(CNC(=O)c2ccc3nsnc3c2)CCSC1 (centres undefined) | -18.3 |
| Cc1[nH]c2c(C)ccc(C)c2c1CC(=O)NCC(O)c1cccnc1 (centres undefined) | -10.2 |
| O=C(NCC1OCCc2cn(CC3CCOCC3)nc21)c1ccncc1 (centres undefined) | -10.6 |
| O=C(NCc1cccnc1)Nc1ccn(CC(F)F)n1 | -3.22 |
| CCCc1nc(N2CCCN3CCC[C@H]3C2)c2cnn(C)c2n1 | 15.2 |
| COc1ccc(-c2noc(C3=NN(C)C(=O)CC3)n2)cc1OC | -3.46 |
| Cc1nn(-c2ccccc2Cl)c(C)c1CCC(=O)NCCS(C)(=O)=O | 1.1 |
| Cc1nnc([C@]23COC[C@H]2CN(S(=O)(=O)c2cccnc2)C3)o1 | -5.13 |
| O=C1C=CC=N/C1=C(/O)NCCNS(=O)(=O)N1CCCCCC1 | -9.06 |
| CCc1nc(C)c(C(=O)NCCNc2cnccn2)s1 | 3.09 |
| O=C(COc1ccccc1O)N1CCOC(C(F)(F)F)C1 (centres undefined) | 17.8 |
| O=C(COC1CCCC1)N1CCC(C(O)c2ccc(F)cc2)CC1 (centres undefined) | -8.09 |
| CCc1ocnc1C(=O)N1CCCC1c1noc(C2CC2)n1 (centres undefined) | -9.72 |
| CS(=O)(=O)c1cc(Cl)cnc1C1CCN(C(=O)C2CC2)CC1 | -0.478 |

| Compound | cytotoxicity at 70.5 h [%] |
| --- | --- |
| COC[C@]1(O)CCN(C(=O)c2cccc(CN(C)C)c2)CC1(C)C | -5.34 |
| CC(C(=O)N1CCN(c2ncccn2)CC1)n1cncn1 (centres undefined) | -9.39 |
| CCn1c(C)cc(C(=O)N2CCCC(c3nc(C)no3)C2)c1C (centres undefined) | -3.95 |
| O=C(c1cccnc1)N1CC(S(=O)(=O)c2ccc(Cl)cc2)C1 | -10.4 |
| CC(C)(C)NC(=O)CNc1ccc(Br)cn1 | 0.762 |
| CCn1cc(CN2CCC(NS(C)(=O)=O)CC2)cc1C#N | -3.22 |
| CCc1ncnc2c1CCN(Cc1nccs1)CC2 | -7.4 |
| Cc1ncc2c(n1)CN(CC1CCCCO1)CC2 (centres undefined) | 5.6 |
| NC(=O)c1cc(NC(=O)N2CCOCC2)ccc1F | 9.19 |
| c1ccc(OCc2nc(CNCCn3cccn3)cs2)cc1 | 27 |
| CCn1cnnc1C1CCN(C(=O)c2ccc3cc[nH]c3c2)CC1 | 5.48 |
| Oc1cc(CNCCN2CCCCC2)nc2c(F)cccc12 | 24.5 |
| CCc1nc(CN2CCCN(C(=O)c3cnc(C)cn3)CC2)cs1 | 1.16 |
| Cc1nn(C)cc1-c1cncn1CCc1ccc2c(c1)OCCO2 | -9.48 |
| Cc1nc(C2CCN2c2ncccn2)cc(N(C)C)n1 (centres undefined) | -8.86 |
| CCN(CCNC(=O)c1ccccc1Br)C1CC1 | -3.52 |
| CC(C)(CNc1ccccc1S(=O)(=O)C(F)F)N1CCOCC1 | -0.0351 |
| Cc1nc2c(c(NCc3cc4ccccc4s3)n1)CCNCC2 | -5.12 |
| Cc1ccc(OCC(=O)NCc2sccc2C)nc1 | -3.68 |
| CC(NCCn1cccn1)c1ccccc1Cl (centres undefined) | 10.3 |
| Cc1nc(NCc2nncn2C2CC2)c2c(CC(C)C)csc2n1 | 20 |
| Cc1nc(CSCc2ccc(OCC(F)(F)F)nc2)no1 | -7.83 |
| COC(=O)CCn1ccc(=O)c2cc(OC)ccc21 | -0.582 |

| Compound | cytotoxicity at 70.5 h [%] |
| --- | --- |
| CN(C)C(=O)CCNC(=O)c1cnc(-c2ccccc2)nc1 | -5.51 |
| Cc1ccc(Cl)cc1C(=O)N1CCC2(CC1)c1ccccc1[C@@H](N)[C@@H]2O | 15.9 |
| CCOc1cc(-c2cc(=O)n3c(n2)CCCCC3)ccc1O | -20.5 |
| CN(C)C(=O)C1CN(Cc2ccccn2)CCN(S(C)(=O)=O)C1 (centres undefined) | -3.97 |
| COC(=O)COc1nc(CC(C)C)c2c(c1C#N)CCCC2 | 7.01 |
| CCn1nc(C)c(NC(=O)c2nnn(Cc3ccccc3)c2OC)c1C | -5.09 |
| Fc1ccccc1-c1noc2c1CN(CCN1CCOCC1)CC2 | 7.36 |
| CC(=O)c1cc(CN2CCCC23CCN(c2ccccn2)CC3)cs1 | -19.2 |
| Cc1oncc1C(=O)N1CC[C@@H]2[C@@H]1CC(=O)N2Cc1cccnc1 | -5.14 |
| O=S(=O)(c1cccnc1)N1CCCCC1CCN1CCOCC1 (centres undefined) | 23.1 |
| CC(C)(C)C(=O)N1CCCN(c2ncnc3nc(N)ccc23)CC1 | -1.35 |
| COc1cc(CNc2nc3c(c(=O)[nH]2)CCNC3)cc(OC)c1OC | -6.47 |
| O=C(c1ccncc1)N1CCOC2(COCCN(c3cccnc3)C2)C1 (centres undefined) | -8.51 |
| CN1CCCN(S(C)(=O)=O)c2cc(F)ccc21 | -3.48 |
| N#Cc1ccc(OC2CCN(C(=O)c3ccc4c(c3)OCO4)CC2)nc1 | 17.3 |
| COC(=O)CCCC(=O)N1CCCCC1c1ccc(F)cc1 (centres undefined) | 2.01 |
| Fc1cccc(N2CCCC3(CN(Cc4cccnc4)CCO3)C2)c1 (centres undefined) | -6.89 |
| COc1cc(NC(=O)c2cscn2)ncn1 | 22.1 |
| Cc1ccc(C#N)c(N2CCC(c3nccn3CCN(C)C)CC2)n1 | -7.04 |
| COc1cccc2c1OCC(C(=O)NCc1ncc3c(n1)CCC3)C2 (centres undefined) | -9.1 |
| CO[C@@]1(C)C[C@@H](O)C12CCN(C(=O)C1(c3ccccc3F)CC1)CC2 | 9.4 |
| Cc1cccc(CS(=O)(=O)NCc2nn(C)c3c2CCCC3)c1 | -2.52 |
| Cc1cccc(CN2CCCC3(CCN(CC4CCCO4)CC3)C2)n1 (centres undefined) | -11.4 |

| Compound | cytotoxicity at 70.5 h [%] |
| --- | --- |
| CCOCc1nn(C)c2c1CN(CCO)CC2 | -6.16 |
| CN(CC(=O)N1CCN(c2ncccn2)CC1)c1ccc(Cl)cn1 | -7.47 |
| CO[C@@H]1c2ccccc2C2(CCN(C(=O)CNS(C)(=O)=O)CC2)[C@H]1O | 23.4 |
| O=C(Cc1ccc2c(c1)CCC2)NCCNc1cnccn1 | -16 |
| CCc1nc(CN2CCCN(c3nn4cc(C)nc4s3)CC2)no1 | 23.9 |
| Cn1cc(C(O)CNC(=O)Nc2cc(F)ccc2-n2cccn2)cn1 (centres undefined) | 5.74 |
| CNC(=O)c1cc2c(nc1N(C)C)CCN(c1ncc(C)cn1)CC2 | -6.83 |
| CC(C)CCc1noc(CN2CCCC(CNS(N)(=O)=O)C2)n1 (centres undefined) | -1.48 |
| Cc1ccccc1N1CCN(c2ccncn2)C(C)C1 (centres undefined) | -2.86 |
| O=C(CN1C=Nc2ccccc2S1(=O)=O)NCc1ccccc1F | -9.4 |
| O=C(Cc1cccc(O)c1)N1CCCC(O)(CN2CCOCC2)CC1 (centres undefined) | 0.936 |
| Cc1nnc(NC(=O)N2CCCCC2CCO)s1 (centres undefined) | -0.98 |
| O=C(CN1C(=O)CCNC1=O)N1CCOC(c2ccc(F)cc2)C1 (centres undefined) | -2.25 |
| CC(C)(C)c1cc(NC(=O)CN(Cc2cccs2)Cc2cccs2)on1 | -8.34 |
| Cc1ccc(N2CC3(CCN(c4nccs4)C3)C2)nn1 | -4.92 |
| CS(=O)(=O)c1cc(C(=O)NS(=O)(=O)Cc2ccc(F)cc2)ccc1Cl | -3.9 |
| CC(=O)Nc1ccc(CN2CCOC2=O)cc1 | -9.56 |
| O=C(NCCNS(=O)(=O)c1ccc(C(F)(F)F)cc1)c1ccoc1 | -6.84 |
| CCOCCn1nc(C)cc1C(=O)N1CC[C@](O)(CC)[C@H](O)C1 | 3.37 |
| O=C(c1cnccn1)N1CCOC2(CCCN(c3ncccc3F)C2)C1 (centres undefined) | -16.1 |
| Cc1ccc([C@]2(O)CC[C@H]3CN(Cc4cccnc4)C[C@H]32)nc1 | 9.25 |
| CC(C)[C@H]1COC(=O)N1CC(=O)N1CCCN(C(=O)c2ccoc2)CC1 | -8.34 |
